Experimental data: patent US20250262336A1, “[177LU] LUTETIUM-PSMA I&T COMPOSITION AND DOSIMETRY, KIT, METHOD OF MAKING, AND METHOD OF USING THEREOF” (Curium US LLC, priority 2023, published 2025)

Test: Cycle 1 normal organ dosimetry (SPECT/CT, TIACs, OLINDA 2.2.3)
Type: in vivo, human
Details: for Absorbed Dose, Mean / Absorbed Dose, max / Absorbed Dose, median / Absorbed Dose, min: Cycle 1, n = 26; for Absorbed Dose in Cycle 1, Mean / Absorbed Dose in Cycle 1, max / Absorbed Dose in Cycle 1, min: N = 16 patients imaged at cycle 1 and 3
Protocol: This Example presents the biodistribution, dosimetry, and pharmacokinetics (PK) results of a PK/Dosimetry sub-study performed as part of a Phase III trial. Twenty-seven (27) patients were administered a target activity of 7.4±10% GBq of ^177Lu-PSMA-I&T and underwent single photon emission computed tomography (SPECT)/computed tomography (CT) imaging at four timepoints (4 h, 24 h, 48 h, and 168 h). Image data was analysed to compute time-activity curves (TACs) and subsequently time-integrated activity coefficients (TIACs) in each organ of interest and in organs showing appreciable and meaningful ^177Lu-PSMA-I&T activity. Organ Level Internal Dose Assessment (OLINDA 2.2.3) was used to compute organ and whole body absorbed radiation doses for each patient.
All participating sites underwent a rigorous site setup process during which all dose calibrators, scanners, and gamma counters used in the sub-study were calibrated. Sites were allowed to enroll patients in the sub-study only after the completion and approval of all site setup processes by Invicro. Patients underwent SPECT/CT imaging, with anatomical coverage typically extending from the salivary glands to the pelvis, following the administration of a targeted 7.4±10% GBq of ^177Lu-PSMA-I&T at cycle 1. SPECT/CT imaging was performed at four timepoints: 4 h, 24 h, 48 h, and 168 h post-injection. Additionally, a subset of patients imaged at Cycle 1 (16 out of 27), were also imaged at Cycle 3 (Table 2).
In general, raw projection data was acquired into a 128×128 matrix with medium energy general purpose (MEGP) collimation using a step and shoot acquisition mode, acquiring 60 projections per detector (180 degrees rotation per detector), 20 seconds per projection, with an acquisition zoom of 1.0, and a 20% (±10%) energy window centered over 208 keV.
A low-dose CT scan was performed prior to beginning the SPECT scan for attenuation correction. Sites were instructed to use the Institutional standard parameters for acquisition of the low-dose CT. Institutional standard reconstruction parameters were used. Scatter correction was required to be applied using a 20% (±10%) scatter window centered over 170 keV.
The imaging data was analyzed using Invicro's VivoQuant software, a validated software used in a 21 CFR § 11-compliant workflow. The general quantification approach was based on the principles detailed in the Medical Internal Radiation Dose (MIRD) Pamphlet No. 16, No 23, and No 26 as appropriate.
SPECT images were calibrated in units of Becquerel (Bq) using a calibration factor derived from a source of known activity, measured during site set up with the same acquisition and reconstruction parameters employed for patient imaging. A patient-specific calibration factor was also derived at each clinical time point after acquisition of the patient SPECT/CT. As a quality control measure, if the patient-specific calibration factor differed by more than 10% from the site set up calibration factor, an investigation was conducted.
Volume of interest (VOI) (kidneys, bladder, liver, lumbar vertebrae L2-L4, lacrimal glands, salivary glands [parotid and submandibular glands], and whole body) were delineated on each dataset by a trained image analyst. […] Organs were segmented either by drawing the entire contour of the organ, or by placing a sphere in a representative region of the organ and then multiplying by the organ's effective mass (based on patient's height and weight). Segmentation methods for each organ are specified in Table 3 and were consistently applied to each patient.
Clearance of the radiopharmaceutical was derived from a data-appropriate fit of each organ's TAC. Depending on the TAC's shape, the data was fitted with the sum of one, two, or three exponentials, or using a rise and fall model. Fitting was performed with in-house Python software. TIACs were calculated through analytical integration of the curve fit extrapolated to infinity. […]

[1] = Lacrimal Glands (OLINDA sphere model)

O=C(O)CC[C@H](NC(=O)N[C@@H](CCCCNC(=O)CCCCCCC(=O)NCCCC[C@@H](NC(=O)[C@@H](Cc1ccccc1)NC(=O)[C@@H](Cc1ccc(O)c(I)c1)NC(=O)CC[C@H](C(=O)O)N1CCN(CC(=O)O)CCN(CC(=O)O)CCN(CC(=O)O)CC1)C(=O)O)C(=O)O)C(=O)O [^177Lu-PSMA-I&T, (3S,7 S,26R,29R,32R,37R)-29-benzyl-32-(4-hydroxy-3-iodobenzyl)-5,13,20,28,31,34-hexaoxo-37-(4,7,10-tris(carboxymethyl)-1,4,7,10-tetraazacyclododecan-1-yl)-4,6,12,21,27,30,33-heptaazaheptatriacontane-1,3,7,26,37-pentacarboxylic acid; lutetium-177 (III), metal not drawn]
Absorbed Dose, Mean (Adrenals): 0.02 Gy/GBq
Absorbed Dose, max (Adrenals): 0.08 Gy/GBq
Absorbed Dose, median (Adrenals): 0.02 Gy/GBq
Absorbed Dose, min (Adrenals): 0.01 Gy/GBq
Absorbed Dose in Cycle 1, Mean (Adrenals): 0.02 Gy/GBq
Absorbed Dose in Cycle 1, max (Adrenals): 0.08 Gy/GBq
Absorbed Dose in Cycle 1, min (Adrenals): 0.01 Gy/GBq
Absorbed Dose, Mean (Brain): 0.01 Gy/GBq
Absorbed Dose, max (Brain): 0.07 Gy/GBq
Absorbed Dose, median (Brain): 0.01 Gy/GBq
Absorbed Dose, min (Brain): 0.00 Gy/GBq
Absorbed Dose in Cycle 1, Mean (Brain): 0.01 Gy/GBq
Absorbed Dose in Cycle 1, max (Brain): 0.07 Gy/GBq
Absorbed Dose in Cycle 1, min (Brain): 0.00 Gy/GBq
Absorbed Dose, Mean (Esophagus): 0.02 Gy/GBq
Absorbed Dose, max (Esophagus): 0.07 Gy/GBq
Absorbed Dose, median (Esophagus): 0.01 Gy/GBq
Absorbed Dose, min (Esophagus): 0.00 Gy/GBq
Absorbed Dose in Cycle 1, Mean (Esophagus): 0.01 Gy/GBq
Absorbed Dose in Cycle 1, max (Esophagus): 0.07 Gy/GBq
Absorbed Dose in Cycle 1, min (Esophagus): 0.00 Gy/GBq
Absorbed Dose, Mean (Eyes): 0.01 Gy/GBq
Absorbed Dose, max (Eyes): 0.07 Gy/GBq
Absorbed Dose, median (Eyes): 0.01 Gy/GBq
Absorbed Dose, min (Eyes): 0.00 Gy/GBq
Absorbed Dose in Cycle 1, Mean (Eyes): 0.01 Gy/GBq
Absorbed Dose in Cycle 1, max (Eyes): 0.07 Gy/GBq
Absorbed Dose in Cycle 1, min (Eyes): 0.00 Gy/GBq
Absorbed Dose, Mean (Gallbladder wall): 0.02 Gy/GBq
Absorbed Dose, max (Gallbladder wall): 0.07 Gy/GBq
Absorbed Dose, median (Gallbladder wall): 0.01 Gy/GBq
Absorbed Dose, min (Gallbladder wall): 0.00 Gy/GBq
Absorbed Dose in Cycle 1, Mean (Gallbladder wall): 0.02 Gy/GBq
Absorbed Dose in Cycle 1, max (Gallbladder wall): 0.07 Gy/GBq
Absorbed Dose in Cycle 1, min (Gallbladder wall): 0.00 Gy/GBq
Absorbed Dose, Mean (Heart wall): 0.02 Gy/GBq
Absorbed Dose, max (Heart wall): 0.07 Gy/GBq
Absorbed Dose, median (Heart wall): 0.01 Gy/GBq
Absorbed Dose, min (Heart wall): 0.00 Gy/GBq
Absorbed Dose in Cycle 1, Mean (Heart wall): 0.01 Gy/GBq
Absorbed Dose in Cycle 1, max (Heart wall): 0.07 Gy/GBq
Absorbed Dose in Cycle 1, min (Heart wall): 0.00 Gy/GBq
Absorbed Dose, Mean (Kidneys): 0.41 Gy/GBq
Absorbed Dose, max (Kidneys): 0.81 Gy/GBq
Absorbed Dose, median (Kidneys): 0.37 Gy/GBq
Absorbed Dose, min (Kidneys): 0.17 Gy/GBq
Absorbed Dose in Cycle 1, Mean (Kidneys): 0.41 Gy/GBq
Absorbed Dose in Cycle 1, max (Kidneys): 0.81 Gy/GBq
Absorbed Dose in Cycle 1, min (Kidneys): 0.17 Gy/GBq
Absorbed Dose in Cycle 1, Mean [1]: 0.39 Gy/GBq
Absorbed Dose in Cycle 1, max [1]: 1.19 Gy/GBq
Absorbed Dose in Cycle 1, min [1]: 0.04 Gy/GBq
Absorbed Dose, Mean (Lacrimal Glands): 0.40 Gy/GBq
Absorbed Dose, max (Lacrimal Glands): 1.19 Gy/GBq
Absorbed Dose, median (Lacrimal Glands): 0.26 Gy/GBq
Absorbed Dose, min (Lacrimal Glands): 0.04 Gy/GBq
Absorbed Dose, Mean (Left colon): 0.47 Gy/GBq
Absorbed Dose, max (Left colon): 1.53 Gy/GBq
Absorbed Dose, median (Left colon): 0.41 Gy/GBq
Absorbed Dose, min (Left colon): 0.01 Gy/GBq
Absorbed Dose in Cycle 1, Mean (Left colon): 0.52 Gy/GBq
Absorbed Dose in Cycle 1, max (Left colon): 1.53 Gy/GBq
Absorbed Dose in Cycle 1, min (Left colon): 0.01 Gy/GBq
Absorbed Dose, Mean (Liver): 0.04 Gy/GBq
Absorbed Dose, max (Liver): 0.10 Gy/GBq
Absorbed Dose, median (Liver): 0.03 Gy/GBq
Absorbed Dose, min (Liver): 0.01 Gy/GBq
Absorbed Dose in Cycle 1, Mean (Liver): 0.04 Gy/GBq
Absorbed Dose in Cycle 1, max (Liver): 0.10 Gy/GBq
Absorbed Dose in Cycle 1, min (Liver): 0.01 Gy/GBq
Absorbed Dose, Mean (Lungs): 0.01 Gy/GBq
Absorbed Dose, max (Lungs): 0.07 Gy/GBq
Absorbed Dose, median (Lungs): 0.01 Gy/GBq
Absorbed Dose, min (Lungs): 0.00 Gy/GBq
Absorbed Dose in Cycle 1, Mean (Lungs): 0.01 Gy/GBq
Absorbed Dose in Cycle 1, max (Lungs): 0.07 Gy/GBq
Absorbed Dose in Cycle 1, min (Lungs): 0.00 Gy/GBq
Absorbed Dose, Mean (Osteogenic cells): 0.05 Gy/GBq
Absorbed Dose, max (Osteogenic cells): 0.29 Gy/GBq
Absorbed Dose, median (Osteogenic cells): 0.02 Gy/GBq
Absorbed Dose, min (Osteogenic cells): 0.00 Gy/GBq
Absorbed Dose in Cycle 1, Mean (Osteogenic cells): 0.04 Gy/GBq
Absorbed Dose in Cycle 1, max (Osteogenic cells): 0.19 Gy/GBq
Absorbed Dose in Cycle 1, min (Osteogenic cells): 0.00 Gy/GBq
Absorbed Dose, Mean (Pancreas): 0.02 Gy/GBq
Absorbed Dose, max (Pancreas): 0.07 Gy/GBq
Absorbed Dose, median (Pancreas): 0.01 Gy/GBq
Absorbed Dose, min (Pancreas): 0.00 Gy/GBq
Absorbed Dose in Cycle 1, Mean (Pancreas): 0.02 Gy/GBq
Absorbed Dose in Cycle 1, max (Pancreas): 0.07 Gy/GBq
Absorbed Dose in Cycle 1, min (Pancreas): 0.00 Gy/GBq
Absorbed Dose, Mean (Prostate): 0.02 Gy/GBq
Absorbed Dose, max (Prostate): 0.07 Gy/GBq
Absorbed Dose, median (Prostate): 0.01 Gy/GBq
Absorbed Dose, min (Prostate): 0.01 Gy/GBq
